# Patent publication US8354436B2 (4SC Discovery GmbH, priority 2011, dated 2013)
# Read-outs that look alike come from different tables or passages of the source.
# Experiments:
# Format in all cases: cell-based
# [1] = system: PBMC from healthy human donors; experiment: T cell proliferation assay (PHA-stimulated human PBMC, BrdU ELISA); settings: 48 hours
# Outline: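 Proliferation was quantified by BrdU ELISA 48 hours after starting culture of 1×10⁵ human PBMC per well with test compound and 2 μg/ml phytohaemagglutinin. Cells came from healthy donors via Ficoll separation and were kept in RPMI1640 with 10% dialysed heat-inactivated FCS.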
# IL-17AA = IL-17AA production by PHA-stimulated human PBMC (human homodimer IL-17A ELISA); settings: 48 hours
# Method: (§1) Analysis of Proliferation of and Cytokine Production by Human PBMC Stimulated with PHA
# (§2) Peripheral blood mononuclear cells (PBMC) from healthy human donors were purified using Accuspin™ System-Histopaque-1077 (Sigma) according to the protocol recommended by the manufacturer. Purified PBMC were then washed twice with phosphate-buffered saline (PBS) and resuspended in RPMI1640 culture medium supplemented with 10% dialyzed heat inactivated fetal calf serum, 1.5 mM L-glutamine, 100 U penicillin/ml, and […] (all from PAN Biotech, Aidenbach, Germany). For stimulation, PBMC were seeded at 1×10^5 cells/well, activated with 2 μg/ml phytohaemagglutinin (PHA, Sigma) and incubated with the test compounds for 48 hours. IL-17A, IL-17F and INF-γ were then determined in the culture supernatant using a Luminex BioPlex system, following the manufacturer's instructions (BioRad, Munich, Germany). For screening, compounds were used at 10, 1, 0.1 and 0.01 μM. To determine the IC50, compounds were titrated semilogarithmically.
# (§3) Cytokines were determined in the aforementioned culture supernatant using the following methods: IL-17AA/AF was measured using the Luminex BioPlex system (BioRad, Munich, Germany); IL-17AA using the human homodimer IL-17A ELISA Ready Set Go Kit from eBioscience (Frankfurt, Germany); IL-17FF using the human IL-17F ELI-Pair from Hölzel DiagnosticaGmBH (Köln, Germany); and IFN-γ using the OptEIA human IFN-g ELISA from BD Bioscience (Heidelberg, Germany), all following the manufacturer's instructions.
# IFN-γ = IFN-γ production by PHA-stimulated human PBMC (OptEIA human IFN-g ELISA); settings: 48 hours
# Outline: (§4)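 Compounds are titrated semilogarithmically for IC50, or tested at 10, 1, 0.1 and 0.01 μM for screening, on healthy-donor PBMC activated with 2 μg/ml PHA. After 48 h, secreted cytokine is measured in supernatant.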
# IL-17FF = IL-17FF production by PHA-stimulated human PBMC (human IL-17F ELI-Pair); settings: 48 hours
# Outline: as §4
# IL-17AA/AF = IL-17AA/AF production by PHA-stimulated human PBMC (Luminex BioPlex assay); settings: 48 hours, column A, values marked with *, read-out: IC50 (IL-17AA), values marked with * determined by Luminex assay on IL17AA/AF
# Method: as §1, §2, §3
# [2] = PHA-stimulated human PBMC, column D, read-out: IC50 (Tcell proliferation)
# [3] = PHA-stimulated human PBMC, column A, values without *, read-out: IC50 (IL-17AA)
# [4] = PHA-stimulated human PBMC, column C, read-out: IC50 (IFNγ)
# [5] = PHA-stimulated human PBMC, column B, read-out: IC50 (IL-17FF)
# [6] = human PBMC, 2 μg/ml PHA, read-out: D: IC50 (Tcell proliferation)
# [7] = human PBMC, 2 μg/ml PHA, read-out: A: IC50 (IL-17AA)
# [8] = human PBMC, 2 μg/ml PHA, read-out: C: IC50 (IFNγ)
# [9] = human PBMC, 2 μg/ml PHA, read-out: B: IC50 (IL-17FF)
Structure (SMILES),IC50 (IL-17AA; [3]) [nM],IC50 (IFN-γ; [4]) [nM],IC50 (IL-17FF; [5]) [nM],IC50 (IL-17AA/AF) [nM],IC50 (IL-17AA; [7]) [nM],IC50 (IFN-γ; [8]) [nM],IC50 (IL-17FF; [9]) [nM],"IC50 [1, 2] [nM]","IC50 [1, 6] [nM]"
"COC(=O)c1c(-c2c(F)cccc2Cl)noc1-c1cnn(-c2cccc(F)c2)c1C(F)(F)F [Example I-5, methyl 3-(2-chloro-6-fluorophenyl)-5-(1-(3-fluorophenyl)-5-(trifluoromethyl)-1H-pyrazol-4-yl)isoxazole-4-carboxylate]",–,< 10,< 10,< 10,–,–,–,< 10,–
"O=C(NC1CCCCC1)c1c(-c2c(F)cccc2Cl)noc1-c1cnn(-c2ccccc2F)c1C(F)(F)F [Example I-18, 3-(2-chloro-6-fluorophenyl)-N-cyclohexyl-5-(1-(2-fluorophenyl)-5-(trifluoromethyl)-1H-pyrazol-4-yl)isoxazole-4-carboxamide]",1000 to 10000,100 to 1000,100 to 1000,–,–,–,–,1000 to 10000,–
"CNC(=O)c1c(-c2c(F)cccc2Cl)noc1-c1cnn(-c2ccccc2F)c1C(F)(F)F [Example I-19, 3-(2-chloro-6-fluorophenyl)-5-(1-(2-fluorophenyl)-5-(trifluoromethyl)-1H-pyrazol-4-yl)-N-methylisoxazole-4-carboxamide]",1000 to 10000,1000 to 10000,1000 to 10000,–,–,–,–,1000 to 10000,–
"Fc1cccc(Cl)c1-c1noc(-c2cnn(-c3cccc(Cl)c3)c2C(F)(F)F)c1-c1nccs1 [Example 5, 3-(2-chloro-6-fluorophenyl)-5-(1-(3-chlorophenyl)-5-(trifluoromethyl)-1H-pyrazol-4-yl)-4-(thiazol-2-yl)isoxazole]",–,–,–,–,< 10,< 10,< 10,–,< 10
"Cc1nnc(-c2c(-c3c(F)cccc3Cl)noc2-c2cnn(-c3ccccc3F)c2C(F)(F)F)s1 [Example 12, 3-(2-chloro-6-fluorophenyl)-5-(1-(2-fluorophenyl)-5-(trifluoromethyl)-1H-pyrazol-4-yl)-4-(5-methyl-1,3,4-thiadiazol-2-yl)isoxazole]",–,–,–,–,100 to 1000,10 to 100,10 to 100,–,100 to 1000
"COC(=O)c1c(-c2c(F)cccc2Cl)noc1-c1cnn(-c2cccc(Cl)c2)c1C(F)(F)F [Example I-11, methyl 3-(2-chloro-6-fluorophenyl)-5-(1-(3-chlorophenyl)-5-(trifluoromethyl)-1H-pyrazol-4-yl)isoxazole-4-carboxylate]",< 10,< 10,< 10,–,–,–,–,< 10,–

# More lines, main results first:
IC50 (IL-17AA; [3]) [nM],IC50 (IFN-γ; [4]) [nM],IC50 (IL-17FF; [5]) [nM],IC50 (IL-17AA/AF) [nM],IC50 (IL-17AA; [7]) [nM],IC50 (IFN-γ; [8]) [nM],IC50 (IL-17FF; [9]) [nM],Structure (SMILES),"IC50 [1, 2] [nM]","IC50 [1, 6] [nM]"
100 to 1000,10 to 100,10 to 100,–,–,–,–,"COC(=O)c1c(-c2c(F)cccc2Cl)noc1-c1cnn(-c2ccccc2)c1C(F)(F)F [Example I-48, methyl 3-(2-chloro-6-fluorophenyl)-5-(1-phenyl-5-(trifluomethyl)1H-pyrazol-4-yl)isoxazole-4-carboxylate]",10 to 100,–
–,< 10,< 10,< 10,–,–,–,"CSC(=O)c1c(-c2c(F)cccc2Cl)noc1-c1cnn(-c2cccc(F)c2)c1C(F)(F)F [Example I-128, S-methyl 3-(2-chloro-6-fluorophenyl)-5-(1-(3-fluorophenyl)-5-(trifluoromethyl)-1H-pyrazol-4-yl)isoxazole-4-carbothioate]",< 10,–
100 to 1000,100 to 1000,10 to 100,–,–,–,–,"CNC(=O)c1c(-c2c(F)cccc2Cl)noc1-c1cnn(-c2cccc(Cl)c2)c1C(F)(F)F [Example I-32, 3-(2-chloro-6-fluorophenyl)-5-(1-(3-chlorophenyl)-5-(trifluoromethyl)-1H-pyrazol-4-yl)-N-methylisoxazole-4-carboxamide]",10 to 100,–
100 to 1000,100 to 1000,10 to 100,–,–,–,–,"CON(C)C(=O)c1c(-c2c(F)cccc2Cl)noc1-c1cnn(-c2cccc(Cl)c2)c1C(F)(F)F [Example I-63, 3-(2-chloro-6-fluorophenyl)-5-(1-(3-chlorophenyl)-5-(trifluoromethyl)-1H-pyrazol-4-yl)-N-methoxy-N-methylisoxazole-4-carboxamide]",100 to 1000,–
–,< 10,< 10,10 to 100,–,–,–,"CSC(=O)c1c(-c2c(F)cccc2Cl)noc1-c1cnn(-c2cccc(Cl)c2)c1C(F)(F)F [Example I-126, S-methyl 3-(2-chloro-6-fluorophenyl)-5-(1-(3-chlorophenyl)-5-(trifluoromethyl)-1H-pyrazol-4-yl)isoxazole-4-carbothioate]",< 10,–
–,10 to 100,10 to 100,100 to 1000,–,–,–,"CNC(=O)c1c(-c2c(F)cccc2Cl)noc1-c1cnn(-c2cccc(F)c2)c1C(F)(F)F [Example I-62, 3-(2-chloro-6-fluorophenyl)-5-(1-(3-fluorophenyl)-5-(trifluoromethyl)-1H-pyrazol-4-yl)-N-methylisoxazole-4-carboxamide]",10 to 100,–
1000 to 10000,1000 to 10000,1000 to 10000,–,–,–,–,"CNC(=O)c1c(-c2c(F)cccc2Cl)noc1-c1cnn(-c2ccc(F)cc2F)c1C(F)(F)F [Example I-57, 3-(2-chloro-6-fluorophenyl)-5-(1-(2,4-difluorophenyl)-5-(trifluoromethyl)-1H-pyrazol-4-yl)-N-methylisoxazole-4-carboxamide]",1000 to 10000,–
